Assay results from PubChem BioAssay (NCI).
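1) Cells in 96-well plates. 2) Compound, 48 h, 5 concentrations. 3) Linear interpolation between surrounding doses. 4) Unreached endpoint = highest concentration. TGI marks complete inhibition of growth.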 *1 amine or outer side, *2 acyl side, *3 side chain or, on linkers, in order; H or OH if unused. Where a SMILES comes first, the peptide text is derived from it. The star is where a group is joined. γGlu = O=C(O)[CH](CCC(=O)[*:2])N[*:1]; Cbz = O=C(OCc1ccccc1)*; NHOH = ON*

What was measured:
Assay in all cases: inhibition of tumour cell growth, NCI panel, 48 h
[1] = tested on: A498 renal
[2] = tested on: HCT-15 colon
[3] = tested on: HT29 colon
[4] = tested on: IGROV1 ovarian
[5] = tested on: MALME-3M melanoma
[6] = tested on: NCI-H460 lung
[7] = tested on: NCI-H522 lung
[8] = tested on: SN12C renal
[9] = tested on: TK-10 renal
[10] = tested on: COLO 205 colon

| Compound | TGI [1] | TGI [2] | TGI [3] | TGI [4] | TGI [5] | TGI [6] | TGI [7] | TGI [8] | TGI [9] | TGI [10] |
| --- | --- | --- | --- | --- | --- | --- | --- | --- | --- | --- |
| CCOC(=O)CCC(NC(=O)C(CC(=O)OC)NC(=O)OCc1ccccc1)C(=O)NC(CC(=O)OC)C(=O)NC(CCC(=O)OCC)C(=O)NC(CC(=O)OC)C(=O)NC(CCC(=O)OCC)C(=O)NC(CC(=O)OCC)C(=O)OCC (stereo not drawn) (Cbz-D(OMe)E(OEt)D(OMe)E(OEt)D(OMe)E(OEt)D(OEt)-OEt; configuration not given here) | > 100 µM | > 100 µM | > 100 µM | > 100 µM | > 100 µM | > 100 µM | > 100 µM | > 100 µM | > 100 µM | – |
| CC(Nc1cccc(Cl)c1)c1ccncc1 (stereo not drawn) | > 100 µM | > 100 µM | > 100 µM | > 100 µM | > 100 µM | > 100 µM | > 100 µM | > 100 µM | > 100 µM | > 100 µM |
| C[N+](C)(N)Cc1nc(-c2ccc(Cl)cc2)no1 | > 100 µM | > 100 µM | > 100 µM | > 100 µM | > 100 µM | > 100 µM | > 100 µM | > 100 µM | > 100 µM | > 100 µM |
| COc1ccc(OC)c([N+](=O)[O-])c1-c1nc2sc(Cl)cn2c1/C=N/N=C(N)N | 33.7 µM | > 100 µM | 34 µM | 28.8 µM | 42.4 µM | 56.8 µM | 37.9 µM | 37.5 µM | 48.7 µM | > 100 µM |
| O=C(Nc1ccc(Cl)cc1)c1cc(S(=O)(=O)Nc2nc3ncccc3[nH]2)c(SSc2cc(Cl)c(C(=O)Nc3ccc(Cl)cc3)cc2S(=O)(=O)Nc2nc3ncccc3[nH]2)cc1Cl | > 100 µM | > 100 µM | > 100 µM | > 100 µM | > 100 µM | > 100 µM | > 100 µM | > 100 µM | > 100 µM | > 100 µM |
| Cc1cnoc1/N=C1\C=C(Nc2oncc2C)C(=O)c2ccccc21 | > 100 µM | > 100 µM | > 100 µM | > 100 µM | > 100 µM | > 100 µM | – | > 100 µM | > 100 µM | > 100 µM |
| N#C/C=C(/NC(=O)Nc1ccccc1)N1CCCC1 | > 100 µM | > 100 µM | > 100 µM | > 76.3 µM | > 66.9 µM | > 55.4 µM | > 60.8 µM | > 100 µM | > 55.4 µM | > 100 µM |
| CC(C)NC1CCCCC2c3ccccc3C12O (stereo not drawn) | – | > 100 µM | > 100 µM | – | > 100 µM | > 100 µM | > 100 µM | > 100 µM | > 100 µM | > 100 µM |
| Cc1cc2c3c(c1)S(=O)(=O)c1cc(Cl)ccc1N3CCC2 | > 100 µM | > 100 µM | > 100 µM | > 100 µM | > 100 µM | > 100 µM | – | > 100 µM | > 100 µM | > 100 µM |
| COc1ccc(/C=C2\C(=O)N(C(=O)c3ccc(NC(C)=O)cc3)N=C2C)cc1OC | – | > 100 µM | > 100 µM | – | > 100 µM | > 100 µM | > 100 µM | > 100 µM | > 100 µM | > 100 µM |
| O=[N+]([O-])C(/C(Cl)=C(/Cl)N1CCOCC1)=C1\Nc2ccccc2O1 | > 100 µM | > 100 µM | > 100 µM | – | > 100 µM | > 100 µM | – | > 100 µM | – | > 100 µM |
| CCN(CC)C1=Nc2ccccc2-n2ccnc2C1 | > 100 µM | > 100 µM | > 100 µM | > 100 µM | – | > 100 µM | > 100 µM | > 100 µM | > 100 µM | > 100 µM |
| CN1CCN(c2n[nH]c(=O)c3c2nnn3Cc2ccccc2)CC1 | – | > 100 µM | > 100 µM | – | > 100 µM | > 100 µM | – | > 100 µM | > 100 µM | > 100 µM |
| CC(=O)Oc1ccc2c(c1)O/C(=C\c1ccc(N(C)C)cc1)C2=O | – | > 100 µM | > 100 µM | > 100 µM | – | > 100 µM | 66.2 µM | > 100 µM | > 100 µM | > 100 µM |
| NC(CCC(=O)NC(CCC(=O)NO)C(=O)NCC(=O)O)C(=O)O (stereo not drawn) (γGlu-Glu(NHOH)-Gly-OH; configuration not given here) | > 100 µM | > 100 µM | > 100 µM | > 100 µM | – | > 100 µM | > 100 µM | > 100 µM | > 100 µM | > 100 µM |
| CCCCCCc1cc2cc(C(=O)Nc3nc(C45CC6CC(CC(C6)C4)C5)cs3)c(=O)oc2cc1O | 31.3 µM | 39.2 µM | > 100 µM | 46.9 µM | 51.1 µM | 50.3 µM | 8.33 µM | 28.7 µM | 34.2 µM | 32.6 µM |
| Cc1cccc(-c2cc(=O)c3cccnc3[nH]2)c1 | – | > 100 µM | 2.93 µM | > 100 µM | – | > 100 µM | 8.25 µM | > 100 µM | – | 7.5 µM |
| CCOC(=O)c1ccc(-c2onc(C)c2Br)[nH]1 | > 100 µM | > 100 µM | > 100 µM | > 100 µM | > 100 µM | > 100 µM | > 100 µM | – | > 100 µM | > 100 µM |
| CSC(=Nc1ccccc1)c1c(C)[nH]n(-c2ccccc2)c1=O | > 100 µM | > 100 µM | > 100 µM | – | > 100 µM | > 100 µM | > 100 µM | > 100 µM | > 100 µM | > 100 µM |
| Fc1ccc(/C=C2\COCC3=C2NC(=S)NC3c2ccc(F)cc2)cc1 (stereo not drawn) | 30.6 µM | 32.1 µM | – | 76.3 µM | – | 36 µM | 34.2 µM | 33.3 µM | 45.5 µM | 35.1 µM |
| CCCSc1ccc2[nH]c(N3C(=O)/C(=C/c4ccc(O)c(OC)c4)N=C3c3ccccc3)cc2c1 | 93 µM | 32 µM | 88.9 µM | > 100 µM | 84 µM | 10.1 µM | 24.3 µM | 50.4 µM | – | 19.5 µM |
| O=c1[nH]c2c(C(F)(F)F)c(Cl)c(-c3ccccc3)nc2o1 | > 100 µM | > 100 µM | 51.6 µM | > 100 µM | – | 69.8 µM | > 100 µM | 32.4 µM | > 100 µM | 28.1 µM |
| CCOC(=O)N1CCC2(CC1)C[C@](Sc1ccccc1)(C(C)=O)[C@H](C)O2 | > 100 µM | > 100 µM | > 100 µM | > 100 µM | > 100 µM | > 100 µM | > 100 µM | – | > 100 µM | > 100 µM |
